The record followed here is patent US6514989B1, “Aromatic and heteroaromatic substituted 1,2,4-triazolo pyridine derivatives” (Hoffmann-La Roche Inc., priority 2001, dated 2003).

For orientation: Ki means the equilibrium dissociation constant of an inhibitor or competing ligand from its target.

In assay [1] the target is T1, human adenosine A2a receptor (Homo sapiens, UniProt P29274).
T1 construct: expressed in transfected cells; host or cells: CHO cells, semliki forest virus expression system; membrane preparation
T1 sequence (P29274 whole entry): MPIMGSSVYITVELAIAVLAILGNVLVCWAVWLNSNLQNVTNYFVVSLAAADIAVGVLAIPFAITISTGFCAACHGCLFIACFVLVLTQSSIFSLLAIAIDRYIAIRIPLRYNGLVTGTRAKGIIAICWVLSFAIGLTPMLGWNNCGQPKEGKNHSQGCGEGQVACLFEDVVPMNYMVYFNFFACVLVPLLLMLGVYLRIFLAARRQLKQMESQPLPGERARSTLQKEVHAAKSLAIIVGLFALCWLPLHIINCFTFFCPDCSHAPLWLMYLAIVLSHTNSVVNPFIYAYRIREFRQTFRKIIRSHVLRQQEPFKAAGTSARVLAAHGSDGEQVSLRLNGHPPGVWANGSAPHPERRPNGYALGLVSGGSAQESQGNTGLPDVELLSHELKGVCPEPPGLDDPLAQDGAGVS
The assay is described as follows: Human adenosine A2a receptor radioligand binding assay ([125I]-AB-MECA, CHO cell membranes). The following applies: for Selectivity A1/A2a: ratio obtained by dividing KiHA1 by KiHA2A; for Ki: recombinant human A2a receptor expressed in CHO cells, Ki from IC50 by Cheng-Prussoff equation, read-out: hA2a Ki. The protocol:
Human Adenosine A2a Receptor
The gene encoding human adenosine A2a receptor was recombinantly introduced and expressed in chinese hamster ovary (CHO) cells using the semliki forest virus expression system. Cells were harvested, washed twice by centrifugation, homogenized and again washed by centrifugation. The final washed membrane pellet was suspended in a Tris (50 mM) buffer containing 120 mM NaCl, 5 mM KCl, 2 mM CaCl2 and 10 mM MgCl2 (pH 7.4) (buffer A). The [^125I]-AB-MECA ([N(6)-(4-amino-3-iodobenzyl)-5′-N-methylcarbamoyl-adenosine]; 0.05 nM) binding assay was carried out in 96-well a plates in the presence of 20 μg of membrane protein and 0.1 U adenosine deaminase in a final volume of […] of buffer A. Non-specific binding was defined using xanthine amine congener (XAC; 2 μM). Compounds were tested at 10 concentrations from 10 μM-0.3 nM. All assays were conducted in duplicate and repeated at least two times. Assay plates were incubated for 1 hour at room temperature before filtration through Whatman Unifilter GF/C 96-well filter plates (preincubated with 0.3% polyethyleneimine). Filters were washed 3 times with 0.3 ml of cold (4° C.) Tris (50 mM)—NaC […]
[…] 1 (120 mM) buffer (pH 7.4). Microscint 40 scintillation fluid (50 μl) was added to each well and the wells sealed. After gentle shaking for 20 min, plates were counted on a Packard Topcount scintillation counter. IC50 values were calculated using a non-linear curve fitting program and Ki values calculated using the Cheng-Prussoff equation.
(§1) In accordance with the invention, it has been shown that compounds of formula I have a high affinity toward the A2A receptor. In Table I below specific values of prepared compounds are described, Values of KiHA2A and KiHA1 are shown in Table I for compounds of formula 1. A low Ki value is indicative of a particular compound's high affinity toward a particular receptor and conversely a higher Ki value is indicative of a lower affinity for that compound toward a particular receptor. […] Generally speaking, compounds that have a higher HA1/HA2A ratio are able to give a substantially complete blockade of the HA2A receptor without substantially affecting the A1 receptor.

Assay [2] has as its target T2, human adenosine A1 receptor (Homo sapiens, UniProt P30542).
T2 construct: expressed in transfected cells; host or cells: CHO cells, semliki forest virus expression system; membrane preparation
T2 sequence (P30542 1-326): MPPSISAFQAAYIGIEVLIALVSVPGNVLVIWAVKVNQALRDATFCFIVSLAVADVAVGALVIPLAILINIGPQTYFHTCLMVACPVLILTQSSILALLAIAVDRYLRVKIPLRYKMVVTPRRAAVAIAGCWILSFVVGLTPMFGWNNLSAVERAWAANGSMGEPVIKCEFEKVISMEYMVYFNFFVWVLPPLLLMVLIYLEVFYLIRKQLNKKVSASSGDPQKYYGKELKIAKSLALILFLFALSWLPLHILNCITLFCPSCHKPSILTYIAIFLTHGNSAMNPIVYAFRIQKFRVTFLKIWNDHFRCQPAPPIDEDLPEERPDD
The assay is described as follows: Human adenosine A1 receptor radioligand binding assay ([3H]-DPCPX, SPA, CHO cell membranes). Particulars: recombinant human A1 receptor expressed in CHO cells; [3H]-DPCPX 0.6 nM; Ki from IC50 by Cheng-Prussoff equation; read-out: hA1 Ki. The protocol: Human Adenosine A^1 Receptor
The gene encoding human adenosinie A1 receptor was recombinantly introduced and expressed in chinese hamster ovary (CHO) cells using the semliki forest virus expression system. Cells were harvested, washed twice by centrifugation, homogenized and again washed by centrifugation. The final washed membrane pellet was suspended in a Tris (50 mM) buffer containing 120 mM NaCl, 5 mM KCl, 2 mM CaCl2 and 10 mM MgCl2 (pH 7.4) (buffer A). The [^3H]-DPCPX (([propyl-3H]8-cyclopentyl-1,3-dipropyxanthine); 0.6 nM) binding assay was carried out in 96-well plates in the presence of 2.5 μg of membrane protein, 0.5 mg of Ysi-poly-1-lysine SPA beads and 0.1 U adenosine deaminase in a final volume of 200 μl of buffer A. Non-specific binding was defined using xanthine amine congener (XAC; 2 μM). Compounds were tested at 10 concentrations from 10 μM-0.3 nM. All assays were conducted in duplicate and repeated at least two times. Assay plates were incubated for 1 hour at room temperature before centrifugation and then bound ligand determined using a Packard Topcount scintillation counter. IC50 values were calculated using a non-linear curve fitting program and Ki values calculated using the Cheng-Prussoff equation.
as §1

For the molecule `COc1cccc(C(=O)Nc2nc3c(OC)ccc(-c4cccs4)n3n2)c1` [Example 19, 3-Methoxy-N-(8-methoxy-5-thiophen-2-yl-[1,2,4]triazolo[1,5-a]pyridin-2-yl)-benzamide], in assay [1], the “Selectivity A1/A2a” value is on record as 24.6 and the Ki was 201 nM. Also, the Ki in assay [2] was determined as 4940 nM. On the same counts, the results for `COc1ccc(-c2ccccc2)n2nc(NC(=O)c3ccccc3Cl)nc12` [Example 5, 2-Chloro-N-(8-methoxy-5-phenyl-[1,2,4]triazolo[1,5-a]pyridin-2-yl)-benzamide] are 7.3, 258 nM and 1870 nM.

For `COc1ccc(-c2ccsc2)n2nc(NC(=O)c3ccc(F)cc3)nc12` [Example 33, 4-Fluoro-N-(8-methoxy-5-thiophen-3-yl-[1,2,4]triazolo[1,5-a]pyridin-2-yl)-benzamide], in assay [1], the “Selectivity A1/A2a” value was 12.3 and the Ki came to 191 nM. Further, the Ki in assay [2] worked out at 2340 nM. Regarding `COc1ccc(-c2ccc(SC)cc2)n2nc(NC(=O)c3ccc(F)cc3)nc12` [Example 50, 4-Fluoro-N-[8-methoxy-5-(4-methylsulfanyl-phenyl)-[1,2,4]triazolo[1,5-a]pyridin-2-yl]-benzamide], the Ki in assay [1] amounted to 855 nM. Consider `COc1ccc(-c2ccc(Cl)cc2)n2nc(NC(=O)c3ccc(C)s3)nc12` [Example 26, 5-Methyl-thiophene-2-carboxylic acid [5-(4-chloro-phenyl)-8-methoxy-[1,2,4]triazolo[1,5-a]pyridin-2-yl]-amide], for which the “Selectivity A1/A2a” value in assay [1] is 11.1. Besides, the Ki worked out at 256 nM in assay [1] and 2860 nM in assay [2]. On the same counts, the results for `COc1ccc(-c2ccccc2)n2nc(NC(=O)c3ccc(Br)cc3)nc12` [Example 9, 4-Bromo-N-(8-methoxy-5-phenyl-[1,2,4]triazolo[1,5-a]pyridin-2-yl)-benzamide] are 22.4, 102 nM and 2290 nM. With `COc1ccc(-c2ccc3[nH]ccc3c2)n2nc(NC(=O)c3ccc(C)s3)nc12` [Example 45, 5-Methyl-thiophene-2-carboxylic acid [5-(1H-indol-5-yl)-8-methoxy-[1,2,4]triazolo[1,5-a]pyridin-2-yl]-amide], the Ki in assay [1] was found to be 852 nM.

Take `COc1ccc(-c2cccc(NC(C)=O)c2)n2nc(NC(=O)c3ccc(C)s3)nc12` [Example 41, 5-Methyl-thiophene-2-carboxylic acid [5-(3-acetylamino-phenyl)-8-methoxy-[1,2,4]triazolo[1,5-a]pyridin-2-yl]-amide]: the Ki in assay [1] was found to be 254 nM. On the same count and under the same terms, the figure for `CCOC(=O)c1cccc(-c2ccc(OC)c3nc(NC(=O)c4ccc(F)cc4)nn23)c1` [Example 51, 3-[2-(4-Fluoro-benzoylamino)-8-methoxy-[1,2,4]triazolo[1,5-a]pyridin-5-yl]-benzoic acid ethyl ester] is 480 nM. Same read-out and setting: the value for `COc1ccc(-c2ccccc2)n2nc(NC(=O)c3ccccc3Br)nc12` [Example 22, 2-Bromo-N-(8-methoxy-5-phenyl-[1,2,4]triazolo[1,5-a]pyridin-2-yl)-benzamide] was 266 nM.

Regarding `COc1ccc(-c2ccc(SC)cc2)n2nc(NC(=O)c3ccc(C)s3)nc12` [Example 42, 5-Methyl-thiophene-2-carboxylic acid [8-methoxy-5-(4-methylsulfanyl-phenyl)-[1,2,4]triazolo[1,5-a]pyridin-2-yl]-amide], the Ki in assay [1] stood at 287 nM.

Take `COc1ccc(-c2cccc(C(F)(F)F)c2)n2nc(NC(=O)c3ccc(C)s3)nc12` [Example 40, 5-Methyl-thiophene-2-carboxylic acid [8-methoxy-5-(3-trifluoromethyl-phenyl)-[1,2,4]triazolo[1,5-a]pyridin-2-yl]-amide]: the Ki in assay [1] turned out to be 547 nM.

Consider `CCOC(=O)c1cccc(-c2ccc(OC)c3nc(NC(=O)c4ccc(C)s4)nn23)c1` [Example 46, 3-{8-Methoxy-2-[(5-methyl-thiophene-2-carbonyl)-amino]-[1,2,4]triazolo[1,5-a]pyridin-5-yl}-benzoic acid ethyl ester], for which, in assay [1], the Ki was determined as 332 nM. On to `COc1ccc(-c2cccc(C)c2)n2nc(NC(=O)c3ccc(C)s3)nc12` [Example 38, 5-Methyl-thiophene-2-carboxylic acid (8-methoxy-5-m-tolyl [1,2,4]triazolo[1,5-a]pyridin-2-yl)-amide], for which the Ki in assay [1] stood at 277 nM. Still for that read-out and setting: the figure for `COc1ccc(-c2ccccc2C)n2nc(NC(=O)c3ccc(C)s3)nc12` [Example 37, 5-Methyl-thiophene-2-carboxylic acid (8-methoxy-5-o-tolyl-[1,2,4]triazolo[1,5-a]pyridin-2-yl)-amide] is 938 nM; for `COc1ccc(-c2ccccc2)n2nc(NC(=O)c3ccccc3F)nc12` [Example 21, 2-Fluoro-N-(8-methoxy-5-phenyl-[1,2,4]triazolo[1,5-a]pyridin-2-yl)-benzamide] it is 384 nM. The same measure, in the same setting: the figure for `COc1ccc(-c2ccc(Cl)cc2)n2nc(NC(=O)c3ccc(F)cc3)nc12` [Example 48, N-[5-(4-Chloro-phenyl)-8-methoxy-[1,2,4]triazolo[1,5-a]pyridin-2-yl]-4-fluoro-benzamide] is 624 nM; for `COc1ccc(-c2cccc(C(C)=O)c2)n2nc(NC(=O)c3ccc(C)s3)nc12` [Example 43, 5-Methyl-thiophene-2-carboxylic acid [5-(3-acetyl-phenyl)-8-methoxy-[1,2,4]triazolo[1,5-a]pyridin-2-yl]-amide] it is 618 nM; for `COc1ccc(-c2ccc(OC)c3nc(NC(=O)c4ccc(F)cc4)nn23)cc1` [Example 49, 4-Fluoro-N-[8-methoxy-5-(4-methoxy-phenyl)-[1,2,4]triazolo[1,5-a]pyridin-2-yl]-benzamide] it is 346 nM. Same read-out and setting: the figure for `COc1ccc(-c2ccccc2Cl)n2nc(NC(=O)c3ccc(C)s3)nc12` [Example 36, 5-Methyl-thiophene-2-carboxylic acid [5-(2-chloro-phenyl)-8-methoxy-[1,2,4]triazolo[1,5-a]pyridin-2-yl]-amide] is 527 nM; for `COc1ccc(-c2cccc(Cl)c2)n2nc(NC(=O)c3ccc(F)cc3)nc12` [Example 47, N-[5-(3-Chloro-phenyl)-8-methoxy-[1,2,4]triazolo[1,5-a]pyridin-2-yl]-4-fluoro-benzamide] it is 269 nM. `COc1ccc(-c2ccc(C)cc2)n2nc(NC(=O)c3ccc(C)s3)nc12` [Example 39, 5-Methyl-thiophene-2-carboxylic acid (8-methoxy-5-p-tolyl-[1,2,4]triazolo[1,5-a]pyridin-2-yl)-amide]: in assay [1], the Ki was found to be 451 nM. Consider “5-Methyl-thiophene-2-carboxylic acid[8-methoxy-5-(4-vinyl-phenyl)-[1,2,4]triazolo[1,5-a]pyridin-2-yl]-amide [Example 44]”, for which the Ki in assay [1] was 246 nM.
